Reference: patent publication US20220387440A1, “FORMULATIONS FOR USE IN THE PREVENTION AND/OR TREATMENT OF PERIPHERAL NEUROPATHY AND ITS ASSOCIATED DISEASES” (priority 2019, published 2022)
Values joined by “and” are separate entries in the source; they are usually repeats but may differ in a detail not shown here. Equal values may be shown once. Read-outs that look alike come from different tables or passages of the source.

Key:
[1] = tested on: rat dorsal root ganglion neurons (DRG); test: Cell number by hoechst 33342 nucleic acid stain (HCS), glucose toxicity; details: for Score of neuroprotection, HOECHST: glucose-treated DRGs
Excerpt: This dye allows a sensitive cell number determination by fluorescence microscopy.

[2] = tested on: rat dorsal root ganglion neurons (DRG); details: for Score of neuroprotection, Extremity count / Score of neuroprotection, Total length: glucose-treated DRGs
Description: In vitro injury was induced in DRGs culture by glucose treatment (150 mM) for 48 hours. […] By using HCS technology, cell parameters associated with neurite outgrowth—an indication of pre-lethal cytotoxic effects—were measured at single cell level, which allows high-throughput screening.
(§1) Primary cultures of dorsal rat ganglion neurons were prepared from the dorsal ganglions of neonatal Sprague-Dawley rats at day 8. […] Cells were maintained in neurobasal medium supplemented with B-27 component for 8 days at 37° C. in a humidified 5% CO2 atmosphere.
Beta-Ill tubulin staining: Beta-Ill tubulin staining was determined by Immunohistochemistry (IHQ). Cells were washed with PBS (Sigma Aldrich # Cat.D8537) and fixed with methanol for 10 minutes. After the fixation step the samples were washed three times with PBS and permeabilized with PBS+0.3% triton for 10 minutes. The samples were then blocked with PBS+Bovine Serum Albumine (BSA) for 30 minutes and finally anti-beta tubulin Ill antibody (Abcam # Cat.ab7751) were added at 1/1000 in PBS+0.5% BSA for 60 minutes at room temperature. […] The samples were then washed three times and measured under automated fluorescent microscope. To investigate the role of neurite extension, two geometric patterns were mainly employed in this study: total neurite length (total length of the path from a neuron body), and number of extremities (number of terminating neurite segments per neuron).
In order to acquire enough cells for the analysis, nine fields per well were imaged. The 20× objective was used to collect images for the distinct fluorescence channels. Dyes were excited and their fluorescence was monitored at the excitation and emission wavelengths with appropriate filter settings. In the setting up of the procedure, exposure times were adjusted in order to avoid overlapping emission between different probes. The collected images were analyzed using a module that allows the simultaneous quantification of subcellular structures, which are stained by different molecular probes to measure the fluorescence intensity associated with predefined nuclear and cytoplasmic compartments.

[3] = diluted with sodium chloride 0.9%; cited from earlier work
[4] = tested on: peripheral nerves; details: injected into the spinal cord compartment of cerebral spinal fluid; cited from earlier work
[5] = tested on: eye; details: higher concentrations, accidental use instead of Trypan Blue during cataract surgery; cited from earlier work
[6] = tested on: rat dorsal root ganglion neurons (DRG); test: WST-8 assay of viable cells, glucose toxicity; details: for Score of neuroprotection, WST8: glucose-treated DRGs
Description: as §1
2. WST-8 assay: For detection of viable cells, 10 μl of CCK-8 reagent (WST-8) were added to each well and the plate was incubated at 37° C. After 1 hour, absorbance was measured at 450 nm using the Synergy II microplate reader.

[7] = tested on: glucose-treated DRGs; test: Degree of neuroprotection, sum of scores of all HCS parameters; details: for Total score of neuroprotection (sum of individual scores): glucose-treated DRGs; for Neuroprotection degree: prior to assault with 150 mM glucose
Excerpt: For all the studied parameters, a variation of at least 20% in fluorescence intensity or in the corresponding morphological parameter in relation to untreated cultures was considered. […] From this calculation, a neuroprotective scale was established: high (>6), moderate (4-5), low (1-3), and no neuroprotection (0).
In order to compare the degree of neuroprotection of the tested compound at different concentrations, different scores were created according to the level of the alteration (the group formation criterion is described in material and methods section) and then a value was assigned to each parameter. The sum of all the values for each parameter and concentration tested was calculated, and four distinct groups were created according to their level of neuroprotection.

[8] = MB 0.0005 uM (with glu 150 mM, 48 h)
[9] = MB 0.0005 uM (with glu 150 mM, 48 h), listed as MB
[10] = MB 0.005 uM (with glu 150 mM, 48 h)
[11] = MB 0.005 uM (with glu 150 mM, 48 h), listed as MB
[12] = MB 0.05 uM (with glu 150 mM, 48 h)
[13] = MB 0.05 uM (with glu 150 mM, 48 h), listed as MB
[14] = MB 0.5 uM (with glu 150 mM, 48 h)
[15] = MB 0.5 uM (with glu 150 mM, 48 h), listed as MB
[16] = MB 5 uM (with glu 150 mM, 48 h)
[17] = MB 5 uM (with glu 150 mM, 48 h), listed as MB
[18] = MB 50 uM (with glu 150 mM, 48 h)
[19] = MB 50 uM (with glu 150 mM, 48 h), listed as MB
[20] = Sprague-Dawley, rat, 48 h, 150 mM

SMILES: CN(C)c1ccc2nc3ccc(N(C)C)cc3[s+]c2c1 [methylene blue, 3,7-bis(dimethylamino) phenothiazin-5-ium chloride]
- Score of neuroprotection, HOECHST ([1]; 0.0005 μM): 3 (variation 60-100%)
- Score of neuroprotection, HOECHST ([1]; 0.005 μM): 3 (variation 60-100%)
- Score of neuroprotection, HOECHST ([1]; 0.05 μM): 3 (variation 60-100%)
- Score of neuroprotection, HOECHST ([1]; 0.5 μM): 3 (variation 60-100%)
- Score of neuroprotection, HOECHST ([1]; 5 μM): 1 (variation 20-40%)
- Score of neuroprotection, HOECHST ([1]; 50 μM): −1 (variation 20-40%)
- Cell viability by Hoechst, Mean % of control [1, 8]: 100.3 % of control
- Cell viability by Hoechst, mean [1, 8]: 221.7
- Cell viability by Hoechst (single replicates) [1, 9]: 187 and 236 and 242
- Cell viability by Hoechst, Mean % of control [1, 10]: 115.1 % of control
- Cell viability by Hoechst, mean [1, 10]: 254.3
- Cell viability by Hoechst (single replicates) [1, 11]: 255 and 290 and 218
- Cell viability by Hoechst, Mean % of control [1, 12]: 115.2 % of control
- Cell viability by Hoechst, mean [1, 12]: 254.7
- Cell viability by Hoechst (single replicates) [1, 13]: 270 and 253 and 241
- Cell viability by Hoechst, Mean % of control [1, 14]: 109.2 % of control
- Cell viability by Hoechst, mean [1, 14]: 241.3
- Cell viability by Hoechst (single replicates) [1, 15]: 234 and 217 and 273
- Cell viability by Hoechst, Mean % of control [1, 16]: 64.56 % of control
- Cell viability by Hoechst, mean [1, 16]: 142.7
- Cell viability by Hoechst (single replicates) [1, 17]: 168 and 103 and 157
- Cell viability by Hoechst, Mean % of control [1, 18]: 30.92 % of control
- Cell viability by Hoechst, mean [1, 18]: 68.33
- Cell viability by Hoechst (single replicates) [1, 19]: 74 and 69 and 62
- prevention of glucose-induced mortality ([1]; all concentrations (0.0005-5 μM), dose dependent, except 50 μM, co-incubation with 150 mM glucose): could prevent glucose-induced mortality
- Score of neuroprotection, Extremity count ([2]; 0.0005 μM): 0 (no neuroprotection or variation lower than 20%)
- Score of neuroprotection, Total length ([2]; 0.0005 μM): 0 (no neuroprotection or variation lower than 20%)
- Score of neuroprotection, Extremity count ([2]; 0.005 μM): 0 (no neuroprotection or variation lower than 20%)
- Score of neuroprotection, Total length ([2]; 0.005 μM): 0 (no neuroprotection or variation lower than 20%)
- re-establishment of neurite outgrowth affected by glucose ([2]; 0.05 μM with 150 mM glucose): could re-establish the affected neurite outgrowth
- Score of neuroprotection, Extremity count ([2]; 0.05 μM): 1 (variation 20-40%)
- Score of neuroprotection, Total length ([2]; 0.05 μM): 1 (variation 20-40%)
- Score of neuroprotection, Extremity count ([2]; 0.5 μM): 0 (no neuroprotection or variation lower than 20%)
- Score of neuroprotection, Total length ([2]; 0.5 μM): 0 (no neuroprotection or variation lower than 20%)
- Score of neuroprotection, Extremity count ([2]; 5 μM): −1 (variation 20-40%)
- Score of neuroprotection, Total length ([2]; 5 μM): 0 (no neuroprotection or variation lower than 20%)
- Score of neuroprotection, Extremity count ([2]; 50 μM): −3 (variation 40-60%)
- Score of neuroprotection, Total length ([2]; 50 μM): −1 (variation 20-40%)
- Extremity count/neuron, Mean % of control [2, 8]: 77.9 % of control
- Extremity count/neuron, mean [2, 8]: 0.966
- Total length per neuron, Mean % of control [2, 8]: 70.88 % of control
- Total length per neuron, mean [2, 8]: 50.15
- Extremity count/neuron (single replicates) [2, 9]: 1.058 and 0.8613 and 0.9784
- Total length per neuron (single replicates) [2, 9]: 50.96 and 40.13 and 59.36
- Extremity count/neuron, Mean % of control [2, 10]: 82.24 % of control
- Extremity count/neuron, mean [2, 10]: 1.02
- Total length per neuron, Mean % of control [2, 10]: 74.22 % of control
- Total length per neuron, mean [2, 10]: 52.51
- Extremity count/neuron (single replicates) [2, 11]: 0.8645 and 1.19 and 1.005
- Total length per neuron (single replicates) [2, 11]: 45.83 and 61.19 and 50.5
- Extremity count/neuron, Mean % of control [2, 12]: 95.29 % of control
- Extremity count/neuron, mean [2, 12]: 1.182
- Total length per neuron, Mean % of control [2, 12]: 86.27 % of control
- Total length per neuron, mean [2, 12]: 61.03
- Extremity count/neuron (single replicates) [2, 13]: 1.345 and 1.059 and 1.141
- Total length per neuron (single replicates) [2, 13]: 62.91 and 50.39 and 69.8
- Extremity count/neuron, Mean % of control [2, 14]: 61.57 % of control
- Extremity count/neuron, mean [2, 14]: 0.7634
- Total length per neuron, Mean % of control [2, 14]: 56.15 % of control
- Total length per neuron, mean [2, 14]: 39.72
- Extremity count/neuron (single replicates) [2, 15]: 0.6567 and 0.8552 and 0.7784
- Total length per neuron (single replicates) [2, 15]: 37.34 and 47.77 and 34.07
- Extremity count/neuron, Mean % of control [2, 16]: 52.97 % of control
- Extremity count/neuron, mean [2, 16]: 0.6568
- Total length per neuron, Mean % of control [2, 16]: 60.36 % of control
- Total length per neuron, mean [2, 16]: 42.7
- Extremity count/neuron (single replicates) [2, 17]: 0.8559 and 0.5369 and 0.5777
- Total length per neuron (single replicates) [2, 17]: 53.61 and 42.2 and 32.3
- Extremity count/neuron, Mean % of control [2, 18]: 20.98 % of control
- Extremity count/neuron, mean [2, 18]: 0.2601
- Total length per neuron, Mean % of control [2, 18]: 22.74 % of control
- Total length per neuron, mean [2, 18]: 16.09
- Extremity count/neuron (single replicates) [2, 19]: 0.2833 and 0.2345 and 0.2625
- Total length per neuron (single replicates) [2, 19]: 18.18 and 12.64 and 17.45
- compatibility with saline [3]: precipitation has been reported
- nerve toxicity after injection into cerebral spinal fluid [4]: massive peripheral nerves damage and resultant total paraplegia
- ocular toxicity [5]: irreversible blindness, corneal edema
- Score of neuroprotection, WST8 ([6]; 0.0005 μM): 0 (no neuroprotection or variation lower than 20%)
- Score of neuroprotection, WST8 ([6]; 0.005 μM): 0 (no neuroprotection or variation lower than 20%)
- Score of neuroprotection, WST8 ([6]; 0.05 μM): 0 (no neuroprotection or variation lower than 20%)
- Score of neuroprotection, WST8 ([6]; 0.5 μM): 0 (no neuroprotection or variation lower than 20%)
- Score of neuroprotection, WST8 ([6]; 5 μM): 0 (no neuroprotection or variation lower than 20%)
- viability (WST8) in addition to glucose ([6]; 50 μM with 150 mM glucose): decrease in viability
- Score of neuroprotection, WST8 ([6]; 50 μM): −1 (variation 20-40%)
- prevention of glucose induced viability decrease (WST8) ([6]; 0.0005-50 μM with 150 mM glucose): could not prevent glucose induced viability decrease
- Total score of neuroprotection (sum of individual scores) ([7]; 0.0005 μM): 3
- Neuroprotection degree ([7]; 0.0005 μM): low (low (1-3))
- Total score of neuroprotection (sum of individual scores) ([7]; 0.005 μM): 3
- Neuroprotection degree ([7]; 0.005 μM): low (low (1-3))
- Total score of neuroprotection (sum of individual scores) ([7]; 0.05 μM): 5
- Neuroprotection degree ([7]; 0.05 μM): moderate (moderate (4-5))
- Total score of neuroprotection (sum of individual scores) ([7]; 0.5 μM): 3
- Neuroprotection degree ([7]; 0.5 μM): low (low (1-3))
- Total score of neuroprotection (sum of individual scores) ([7]; 5 μM): 0
- Neuroprotection degree ([7]; 5 μM): no (no neuroprotection (0))
- Total score of neuroprotection (sum of individual scores) ([7]; 50 μM): −6
- neuroprotection against glucose-induced DRGs toxicity, all parameters ([7]; concentrations from 0.0005 μM to 0.5 μM): some neuroprotection

SMILES: O=C[C@H](O)[C@@H](O)[C@H](O)[C@H](O)CO [Glucose, glucose]
- Cell viability by Hoechst (single replicates) ([1]; Glucose (Alone) 150 mM, 48 h): 125 and 104 and 81
- Cell viability by Hoechst, Mean % of control ([1]; Glucose (Alone) 150 mM, 48 h): 46.76 % of control
- Cell viability by Hoechst, mean ([1]; Glucose (Alone) 150 mM, 48 h): 103.3
- mortality in neurons [1, 20]: 54%
- Extremity count/neuron (single replicates) ([2]; Glucose (Alone) 150 mM, 48 h): 0.82 and 0.9862 and 0.7818
- Extremity count/neuron, Mean % of control ([2]; Glucose (Alone) 150 mM, 48 h): 69.57 % of control
- Extremity count/neuron, mean ([2]; Glucose (Alone) 150 mM, 48 h): 0.8627
- Total length per neuron (single replicates) ([2]; Glucose (Alone) 150 mM, 48 h): 42.95 and 52.97 and 37.56
- Total length per neuron, Mean % of control ([2]; Glucose (Alone) 150 mM, 48 h): 62.89 % of control
- Total length per neuron, mean ([2]; Glucose (Alone) 150 mM, 48 h): 44.49
- decrease in neurite extremity count compared to untreated cells [2, 20]: 31%
- decrease in neurite total length compared to untreated cells [2, 20]: 38%
- viability reduction in DRGs measured by WST8 ([6]; glucose 150 mM, 48 h): 22%
